Source: paper PMC9889419 (Pharmacological Reports, 2022)
Structures can show the parent of a compound that is named as a salt.

Tests used:
mice [1] = experiment: Bicuculline-induced seizures; assay type: in vivo; settings: ip
rats [2] = settings: ip, […]
rats [3] = assay type: in vivo; settings: ip
[4] = test system: CYP3A4 (pregnane X receptor); experiment: In vitro metabolic gene induction studies; assay type: cell-based, human
[5] = test system: Salmonella enterica sv. Typhimurium TA 98; experiment: Ames test
MTLE mice = MTLE mice acute screen evaluation; assay type: in vivo
[6] = Approximate solubility tests; assay type: physicochemical; settings: pH 9.9 borate buffer
Experimental: Borate buffer pH = 9.9 was selected as one of standard buffers at this pH range. […] Initially, three organic modifiers were considered: ethanol, dimethyl sulfoxide (DMSO) and 1,4-dioxane. […] Finally, dioxane was selected due to its higher boiling point, which reduced the risk of evaporation during a prolonged experiment. During the experiment, three degradation products were observed (tR = 13 min, tR = 15 min and tR = 17 min).

anaesthetized rat = experiment: Effect on normal electrocardiogram; assay type: in vivo, rats;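 further: standard lead II ECG run at 50 mm/s, taken before dosing and at serial times up to 60 min after iv or 90 min after po administration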
mice [7] = experiment: Formalin test (first screening); assay type: in vivo; settings: ip
[8] = molecular target: T1, hNav1.8/beta3 sodium channel (Homo sapiens, UniProt Q9Y5Y9); experiment: Nav channel electrophysiology (IonWorks Quattro); assay type: cell-based
T1 construct: host or cells: CHO cells
T1 sequence (Q9Y5Y9 whole entry): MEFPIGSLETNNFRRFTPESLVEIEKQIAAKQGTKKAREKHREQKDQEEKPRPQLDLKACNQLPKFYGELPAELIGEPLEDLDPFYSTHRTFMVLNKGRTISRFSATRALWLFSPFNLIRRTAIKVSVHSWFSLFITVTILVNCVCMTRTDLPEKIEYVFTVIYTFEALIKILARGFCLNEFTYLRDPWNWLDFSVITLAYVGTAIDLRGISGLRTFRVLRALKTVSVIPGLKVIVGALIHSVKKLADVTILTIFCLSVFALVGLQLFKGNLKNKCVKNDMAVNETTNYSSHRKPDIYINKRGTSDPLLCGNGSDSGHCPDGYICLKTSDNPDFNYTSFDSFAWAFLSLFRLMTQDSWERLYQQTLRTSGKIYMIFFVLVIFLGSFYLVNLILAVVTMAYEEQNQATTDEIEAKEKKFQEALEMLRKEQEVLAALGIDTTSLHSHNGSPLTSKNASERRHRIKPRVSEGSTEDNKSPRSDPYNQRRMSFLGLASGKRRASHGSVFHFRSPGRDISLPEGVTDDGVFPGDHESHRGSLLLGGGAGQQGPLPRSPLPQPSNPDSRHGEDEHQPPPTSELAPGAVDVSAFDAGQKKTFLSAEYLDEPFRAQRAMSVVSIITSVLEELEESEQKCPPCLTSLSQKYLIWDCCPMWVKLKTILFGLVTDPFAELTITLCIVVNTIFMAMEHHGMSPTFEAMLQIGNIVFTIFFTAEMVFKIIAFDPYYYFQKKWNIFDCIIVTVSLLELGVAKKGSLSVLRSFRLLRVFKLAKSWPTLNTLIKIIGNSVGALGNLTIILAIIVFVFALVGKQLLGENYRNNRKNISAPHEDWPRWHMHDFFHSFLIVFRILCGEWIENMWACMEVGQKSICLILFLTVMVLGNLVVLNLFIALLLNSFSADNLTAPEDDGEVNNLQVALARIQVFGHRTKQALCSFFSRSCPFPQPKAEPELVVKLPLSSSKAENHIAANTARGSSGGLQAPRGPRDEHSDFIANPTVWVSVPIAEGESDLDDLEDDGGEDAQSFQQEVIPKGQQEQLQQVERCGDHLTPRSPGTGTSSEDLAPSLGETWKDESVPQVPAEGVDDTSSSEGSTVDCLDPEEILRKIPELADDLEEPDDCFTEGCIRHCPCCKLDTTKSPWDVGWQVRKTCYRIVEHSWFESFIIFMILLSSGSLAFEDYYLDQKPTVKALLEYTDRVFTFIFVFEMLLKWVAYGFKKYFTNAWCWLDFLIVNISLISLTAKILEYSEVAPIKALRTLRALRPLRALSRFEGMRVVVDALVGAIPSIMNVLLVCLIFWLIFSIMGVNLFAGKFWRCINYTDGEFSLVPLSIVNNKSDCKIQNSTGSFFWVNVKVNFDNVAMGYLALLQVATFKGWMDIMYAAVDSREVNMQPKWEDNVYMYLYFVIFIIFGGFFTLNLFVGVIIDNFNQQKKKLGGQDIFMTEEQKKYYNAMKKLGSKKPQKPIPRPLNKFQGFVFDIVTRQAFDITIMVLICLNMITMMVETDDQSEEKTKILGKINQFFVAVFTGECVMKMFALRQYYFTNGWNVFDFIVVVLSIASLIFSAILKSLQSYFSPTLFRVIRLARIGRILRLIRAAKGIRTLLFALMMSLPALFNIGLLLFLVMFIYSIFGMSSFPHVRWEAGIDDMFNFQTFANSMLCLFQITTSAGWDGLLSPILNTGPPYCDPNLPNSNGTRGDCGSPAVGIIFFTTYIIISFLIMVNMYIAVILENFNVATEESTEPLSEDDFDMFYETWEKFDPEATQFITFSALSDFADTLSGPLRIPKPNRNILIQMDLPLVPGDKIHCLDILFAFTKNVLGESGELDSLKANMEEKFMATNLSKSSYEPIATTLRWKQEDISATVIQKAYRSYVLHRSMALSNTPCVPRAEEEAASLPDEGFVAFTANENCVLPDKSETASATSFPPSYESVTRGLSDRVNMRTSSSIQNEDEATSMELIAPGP
T1 sequence (Q9NY72 25-215 partner limits assumed): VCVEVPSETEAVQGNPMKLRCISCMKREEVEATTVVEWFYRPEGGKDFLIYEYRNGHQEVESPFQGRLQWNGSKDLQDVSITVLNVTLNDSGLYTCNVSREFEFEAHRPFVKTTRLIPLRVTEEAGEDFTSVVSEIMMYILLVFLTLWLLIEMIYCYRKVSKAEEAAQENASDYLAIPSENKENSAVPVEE

mice [9] = experiment: Hot plate test; assay type: in vivo
Experimental: The hot plate test was performed as previously described. The mice were ip pre-treated 30 min before experiment either with the compound, dissolved in saline (at doses 10, 30 and 100 mg/kg) or vehicle and were placed on a hot plate set at 55 °C (Hot plate, Omega 2A, Poland). Latency to nocifensive reaction (hind paw licking or jumping) of mice was recorded. The mouse was removed from the plate immediately upon licking a hind paw/jumping or if no response occurred within 60 s (cut-off).

[10] = test system: normotensive anaesthetized rats; experiment: Influence on blood pressure; assay type: in vivo; settings: 5 mg/kg iv, immediately after administration
Experimental: Influence on blood pressure in rats. Rats were anaesthetized with thiopental (75 mg/kg ip). The right carotid artery was cannulated with polyethylene tube filled with heparin in saline to facilitate pressure measurements using a Datamax apparatus (Columbus Instruments).

mice [11] = experiment: animal or person; settings: Mus musculus, ip, read-out: MES ED50

Compound: CCC(CO)NCCOc1c(C)cccc1Cl (stereo not drawn) [Compound 4, R,S-2-((2-(2-chloro-6-methylphenoxy)ethyl)amino)butan-1-ol]
- Bicuculline-induced seizures ED50 (mice [1]): > 70 mg/kg
- LTG-resistant amygdala seizures: active at (rats [2]): 15 mg/kg
- TD97 (rats [3]): 40.53 mg/kg
- Pilocarpine-induced status epilepticus prevention: result (rats [3]; at 40 mg/kg): no activity
- Max induction (calculated) ([4]; @ 200uM): 12 fold
- EC50 ([4]; read-out: EC50 (calculated)): 100 µM
- % of benzo[a]pyrene (+NADPH) control, + NADPH, Sample 1 ([5]; 0.10 mM): 7.8%
- % of benzo[a]pyrene (+NADPH) control, + NADPH, Sample 2 ([5]; 0.10 mM): 7.8%
- % of benzo[a]pyrene (+NADPH) control, − NADPH, Sample 1 ([5]; 0.10 mM): 5.5%
- % of benzo[a]pyrene (+NADPH) control, − NADPH, Sample 2 ([5]; 0.10 mM): 7.4%
- % of benzo[a]pyrene (+NADPH) control, + NADPH, Sample 1 ([5]; 0.20 mM): 5.2%
- % of benzo[a]pyrene (+NADPH) control, + NADPH, Sample 2 ([5]; 0.20 mM): 7.4%
- % of benzo[a]pyrene (+NADPH) control, − NADPH, Sample 1 ([5]; 0.20 mM): 5.4%
- % of benzo[a]pyrene (+NADPH) control, − NADPH, Sample 2 ([5]; 0.20 mM): 5.3%
- % of benzo[a]pyrene (+NADPH) control, + NADPH, Sample 1 ([5]; 0.50 mM): 5.2%
- % of benzo[a]pyrene (+NADPH) control, + NADPH, Sample 2 ([5]; 0.50 mM): 7%
- % of benzo[a]pyrene (+NADPH) control, − NADPH, Sample 1 ([5]; 0.50 mM): 4.9%
- % of benzo[a]pyrene (+NADPH) control, − NADPH, Sample 2 ([5]; 0.50 mM): 6.7%
- mutagenicity ([5]; 0.1–0.5 mM, compared to DMSO solvent control): non-mutagenic
- MTLE mice acute screen: % of baseline (MTLE mice; at 30 mg/kg, recording period 5–25 min): 80.8 ± 16.8 % of baseline
- MTLE mice acute screen TPE (MTLE mice; mice, ip): 0.25 h

Compound: CCC(CO)NCCOc1c(C)cccc1Cl (stereo not drawn) [KM-408, R,S-2-((2-(2-chloro-6-methylphenoxy)ethyl)amino)butan-1-ol hydrochloride]
- solubility ([6]; 20% dioxane): dissolved fully
- solubility ([6]; 20% ethanol): dissolved fully
- solubility ([6]; DMSO above 30%): full solubility has not been achieved
- PQ (anaesthetized rat; 5 mg/kg iv, 0 min): 50.5 ± 2.6 ms
- QT (anaesthetized rat; 5 mg/kg iv, 0 min): 56.8 ± 3.8 ms
- PQ (anaesthetized rat; 5 mg/kg iv, 1 min): 59.5 ± 5.3 ms
- QT (anaesthetized rat; 5 mg/kg iv, 1 min): 58.0 ± 3.4 ms
- PQ (anaesthetized rat; 5 mg/kg iv, 3 min): 54.8 ± 2.9 ms
- QT (anaesthetized rat; 5 mg/kg iv, 3 min): 60.0 ± 2.8 ms
- PQ (anaesthetized rat; 5 mg/kg iv, 5 min): 54.4 ± 2.3 ms
- QT (anaesthetized rat; 5 mg/kg iv, 5 min): 56.8 ± 3.9 ms
- PQ (anaesthetized rat; 5 mg/kg iv, 10 min): 54.0 ± 1.9 ms
- QT (anaesthetized rat; 5 mg/kg iv, 10 min): 56.2 ± 4.2 ms
- PQ (anaesthetized rat; 5 mg/kg iv, 15 min): 54.4 ± 1.9 ms
- QT (anaesthetized rat; 5 mg/kg iv, 15 min): 55.2 ± 4.1 ms
- PQ (anaesthetized rat; 5 mg/kg iv, 20 min): 54.4 ± 2.0 ms
- QT (anaesthetized rat; 5 mg/kg iv, 20 min): 56.0 ± 4.0 ms
- PQ (anaesthetized rat; 5 mg/kg iv, 30 min): 54.8 ± 1.7 ms
- QT (anaesthetized rat; 5 mg/kg iv, 30 min): 57.2 ± 3.7 ms
- PQ (anaesthetized rat; 5 mg/kg iv, 40 min): 53.6 ± 2.2 ms
- QT (anaesthetized rat; 5 mg/kg iv, 40 min): 57.0 ± 3.7 ms
- PQ (anaesthetized rat; 5 mg/kg iv, 50 min): 53.6 ± 2.6 ms
- QT (anaesthetized rat; 5 mg/kg iv, 50 min): 58.8 ± 3.4 ms
- PQ (anaesthetized rat; 5 mg/kg iv, 60 min): 53.6 ± 1.5 ms
- QT (anaesthetized rat; 5 mg/kg iv, 60 min): 56.0 ± 4.0 ms
- influence on heart rate or ECG intervals (anaesthetized rat; 50 mg/kg po): did not influence
- PQ (anaesthetized rat; 50 mg/kg po, 0 min): 55.6 ± 1.8 ms
- QT (anaesthetized rat; 50 mg/kg po, 0 min): 55.2 ± 3.9 ms
- PQ (anaesthetized rat; 50 mg/kg po, 5 min): 59.2 ± 1.9 ms
- QT (anaesthetized rat; 50 mg/kg po, 5 min): 60.0 ± 0.0 ms
- PQ (anaesthetized rat; 50 mg/kg po, 10 min): 59.6 ± 2.1 ms
- QT (anaesthetized rat; 50 mg/kg po, 10 min): 59.2 ± 0.8 ms
- PQ (anaesthetized rat; 50 mg/kg po, 20 min): 59.0 ± 1.0 ms
- QT (anaesthetized rat; 50 mg/kg po, 20 min): 58.0 ± 2.0 ms
- PQ (anaesthetized rat; 50 mg/kg po, 30 min): 57.4 ± 1.2 ms
- QT (anaesthetized rat; 50 mg/kg po, 30 min): 58.4 ± 1.0 ms
- PQ (anaesthetized rat; 50 mg/kg po, 40 min): 59.2 ± 1.5 ms
- QT (anaesthetized rat; 50 mg/kg po, 40 min): 59.2 ± 0.8 ms
- PQ (anaesthetized rat; 50 mg/kg po, 50 min): 58.4 ± 1.0 ms
- QT (anaesthetized rat; 50 mg/kg po, 50 min): 58.8 ± 1.2 ms
- PQ (anaesthetized rat; 50 mg/kg po, 60 min): 58.4 ± 1.6 ms
- QT (anaesthetized rat; 50 mg/kg po, 60 min): 58.8 ± 1.2 ms
- PQ (anaesthetized rat; 50 mg/kg po, 70 min): 59.6 ± 1.0 ms
- QT (anaesthetized rat; 50 mg/kg po, 70 min): 61.2 ± 4.2 ms
- PQ (anaesthetized rat; 50 mg/kg po, 80 min): 59.6 ± 0.4 ms
- QT (anaesthetized rat; 50 mg/kg po, 80 min): 60.0 ± 0.0 ms
- PQ (anaesthetized rat; 50 mg/kg po, 90 min): 59.6 ± 1.3 ms
- QT (anaesthetized rat; 50 mg/kg po, 90 min): 60.0 ± 0.0 ms
- PQ (anaesthetized rat; 300 mg/kg po, 0 min): 51.6 ± 3.6 ms
- QT (anaesthetized rat; 300 mg/kg po, 0 min): 58.0 ± 2.0 ms
- PQ (anaesthetized rat; 300 mg/kg po, 5 min): 51.2 ± 3.4 ms
- QT (anaesthetized rat; 300 mg/kg po, 5 min): 57.2 ± 2.0 ms
- PQ (anaesthetized rat; 300 mg/kg po, 10 min): 54.8 ± 2.1 ms
- QT (anaesthetized rat; 300 mg/kg po, 10 min): 55.6 ± 2.0 ms
- PQ (anaesthetized rat; 300 mg/kg po, 20 min): 55.2 ± 2.2 ms
- QT (anaesthetized rat; 300 mg/kg po, 20 min): 58.0 ± 2.0 ms
- PQ (anaesthetized rat; 300 mg/kg po, 30 min): 55.2 ± 2.2 ms
- QT (anaesthetized rat; 300 mg/kg po, 30 min): 58.0 ± 2.0 ms
- PQ (anaesthetized rat; 300 mg/kg po, 40 min): 55.2 ± 2.1 ms
- QT (anaesthetized rat; 300 mg/kg po, 40 min): 59.2 ± 0.8 ms
- PQ (anaesthetized rat; 300 mg/kg po, 50 min): 55.8 ± 2.8 ms
- QT (anaesthetized rat; 300 mg/kg po, 50 min): 60.0 ± 0.0 ms
- PQ (anaesthetized rat; 300 mg/kg po, 60 min): 56.0 ± 2.8 ms
- QT (anaesthetized rat; 300 mg/kg po, 60 min): 59.2 ± 0.8 ms
- PQ (anaesthetized rat; 300 mg/kg po, 70 min): 55.4 ± 2.3 ms
- QT (anaesthetized rat; 300 mg/kg po, 70 min): 60.0 ± 0.0 ms
- PQ (anaesthetized rat; 300 mg/kg po, 80 min): 56.0 ± 2.4 ms
- QT (anaesthetized rat; 300 mg/kg po, 80 min): 60.0 ± 0.0 ms
- PQ (anaesthetized rat; 300 mg/kg po, 90 min): 56.0 ± 2.4 ms
- QT (anaesthetized rat; 300 mg/kg po, 90 min): 59.6 ± 0.4 ms
- % of effect (II phase) (mice [7]; 30.0 mg/kg): 26.6%
- Time of licking paw ± SEM (I phase) (mice [7]; 30.0 mg/kg): 60.6 ± 8.0 s
- Time of licking paw ± SEM (II phase) (mice [7]; 30.0 mg/kg): 22.4 ± 6.5 s
- formalin test (I phase): active at (mice [7]): 30 mg/kg
- IC50 ([8]; 10 Hz): 15.2 µM
- IC50 ([8]; Inactivated state): < 10 µM
- IC50 ([8]; Tonic block): 44.1 µM
- effect on the thermal pain threshold (mice [9]; 10 mg/kg ip): no significant effect
- prolongation of nocifensive response (mice [9]; 30 mg/kg ip): 123%
- prolongation of nocifensive response (mice [9]; 100 mg/kg ip): 177%
- hot plate test: active at (mice [9]; mice, ip): 30 mg/kg
- lowering of diastolic blood pressure [10]: approximately 21 mmHg
- lowering of systolic blood pressure [10]: approximately 21 mmHg
- ED50 (mice [11]): 13.3 mg/kg
